Test system: BLM-induced lung fibrosis in mice
Test: Bleomycin (BLM)-induced lung fibrosis mice model
Type: in vivo, C57BL/6JNarl mice
Details: BLM mice; for fibrosis score, Mean ± SEM: H&E histology day 39
Procedure: FIGS. 8 (A) and (B) show the effect of L056 effect on fibrosis score of BLM-induced lung fibrosis in mice. C57BL/6 mice (8 weeks) were treated with bleomycin (BLM, 0.05 U/50 μl) or PBS (50 μl) by endotracheal administration. […] On day 39, the mice were sacrificed and, the histologic analysis of lung tissue was performed by hematoxylin-eosin (H&E) staining (original magnification, x100). […] (A), Histology fibrosis score plot; (B), H&E staining plot.
FIG. 9 (A) to (D) show the inhibitory effects on pro-fibrogenic mediators, collagen, CTGF, fibronectin and […], respectively. (A), H&E staining plot for collagen; (B), H&E staining plot for CTGF; (C), H&E staining plot for fibronectin; (D), H&E staining plot for α-SMA.
C57BL/6JNarl mice (8 weeks) were treated with bleomycin (BLM, 0.05 U/50 μl) or PBS (50 μl) by endotracheal administration. […] On day 39, the mice were sacrificed, and the histologic analysis of lung tissue was performed by hematoxylin-eosin (H&E) staining (original magnification, x100).

[1] = 60 mg (oral, q.d., days 10 to 38)
[2] = 200 mg (mg/kg/day, q.d., oral, days 10 to 38)

| Structure (SMILES) | Efficacy % (reduction of fibrosis score) [1] | fibrosis score, Mean ± SEM [1] | Efficacy % (reduction of fibrosis score) [2] | fibrosis score, Mean ± SEM [2] |
| --- | --- | --- | --- | --- |
| COC(=O)c1ccc2c(c1)NC(=O)/C2=C(\Nc1ccc(N(C)C(=O)CN2CCN(C)CC2)cc1)c1ccccc1 [OFEV, nintedanib, reference compound] | 41.66% | 3.62 ± 0.30 | – | – |
| Cc1ccc(=O)n(-c2ccccc2)c1 [Esbriet, pirfenidone, reference compound] | – | – | 34.08% | 3.91 ± 0.21 |

From patent US12453708B2, “Aminonaphthoquinone compounds for treatment and/or prevention of fibrosis diseases” (CALGENT BIOTECHNOLOGY CO., LTD., priority 2015, dated 2025)
